Starred links: 1 amine or outer side, 2 acyl side, 3 side chain; linkers in the order of their positions; H or OH if unused. Non-standard residues stand in square brackets, D forms with d. Residues, ends and D or L forms follow the SMILES beside them. No end group written: not given here. ξ: configuration not given here. *: point of attachment. X1 = CC(=O)N[C@@H]1[C@@H](O)[C@@H](O)[C@@H](C=NO[C@@H]2O[C@H](CO)[C@H](O)[C@H](O)[C@H]2O)O[C@@H]1*; X2 = CC(=O)N[C@H]1[C@@H](ON=C(C)C[C@H](N[*:1])C(=O)[*:2])O[C@H](CO)[C@H](O)[C@@H]1O; αGalNAc = CC(=O)N[C@@H]1[C@@H](O)[C@@H](O)[C@@H](CO)O[C@@H]1*; Thr(3ξ) = CC(O)[C@H](N)C(=O)O
Columns and labels:
E. coli D22 [1] = experiment: Bacterial growth inhibition assays (Example IV); format: cell-based
Description: General methods: Galactose oxidase (EC 1.1.3.9) (450 units/mg) was purchased from Sigma. All chemical reagents were obtained from commercial suppliers and used without further purification. For flash chromatography, 230-400 mesh silica gel 60 (E. Merck No. 9385) was employed. Analytical thin layer chromatography (tlc) was conducted on Analtech Uniplate silica gel plates with detection by ceric ammonium molybdate and/or by UV light. Reversed-phase high pressure liquid chromatography (RP-HPLC) was performed on a Rainin Dynamax SD-200 system using Microsorb and Dynamax C18 reversed-phase columns (analytical: 4.6 mm ID×25 cm, 1 mL/min; semi-preparative: 10 mm ID×25 cm, 3 mL/min), and ultraviolet detection (230 nm) was performed with a Rainin Dynamax UV-1 detector. The E. coli strain D22 used in bacterial growth inhibition assays was obtained from the E. Coli Genetic Stock Center at Yale University.
Bacterial growth inhibition assays. […] Peptide concentrations were determined by measuring dry weight, and assuming 80% of that weight was peptide and the remainder water and salts. […] Growth was determined by measuring the absorbance at 595 nm on a BioRad 550 microplate reader. Percent inhibition was defined as ((Ao−Ax)/Ao)*100), where Ao was the absorbance of a control well lacking peptide and Ax was the absorbance of a well with peptide.

bacterial growth = details: cited from earlier work; for enhancement of bacteriostatic potency by the O-linked glycan (GalNAc residue) at Thr11: glycosylated vs unglycosylated peptide
E. coli D22 [2] = experiment: growth inhibition assay (Example II); format: cell-based; details: for IC50: E. coli D22 in LB media with streptomycin, 24 h at rt, absorbance at 415 nm, read-out: IC50 in blocking bacterial growth
Description: 10. The growth inhibition assay was performed essentially as described by Bulet et al.^3 Sterile 96-well plates were used, with a final volume of 100 μL per well. This volume consisted of 90 μL of mid-logarithmnic phase culture of E. coli D22 in LB media containing streptomycin (50 μg/mL), added to 10 μL of serially diluted peptide (native drosocin (1), unglycosylated drosocin or neoglycopeptide 2) in water. Final peptide concentrations ranged from 10^−8 to 10^−5 M. Plates were incubated for 24 h at rt. Bacterial growth was determined by measuring the absorbance at 415 nm on a BioRad 550 microplate reader. Measurements were taken at t=0 h and t=24 h, and the change in absorbance (optical density) was recorded.

Compound | enhancement of bacteriostatic potency by the O-linked glycan (GalNAc residue) at Thr11 (bacterial growth) | IC50 (E. coli D22 [2]) | other results
CC[C@H](C)[C@H](NC(=O)[C@@H]1CCCN1C(=O)[C@H](CCCNC(=N)N)NC(=O)[C@@H]1CCCN1C(=O)[C@H](Cc1c[nH]cn1)NC(=O)[C@H](CO)NC(=O)[C@@H](NC(=O)[C@@H]1CCCN1C(=O)[C@H](CCCNC(=N)N)NC(=O)[C@@H]1CCCN1C(=O)[C@H](CO)NC(=O)[C@H](Cc1ccc(O)cc1)NC(=O)[C@@H]1CCCN1C(=O)[C@H](CCCNC(=N)N)NC(=O)[C@@H]1CCCN1C(=O)[C@H](CCCCN)NC(=O)CN)[C@@H](C)O[C@H]1O[C@H](C=NO[C@@H]2O[C@H](CO)[C@H](O)[C@H](O)[C@H]2O)[C@H](O)[C@H](O)[C@H]1NC(C)=O)C(=O)N[C@@H](CCCNC(=N)N)C(=O)N[C@H](C(=O)O)C(C)C [Glycopeptide 5] (H-GKPRPYSPRPT(X1)SHPRPIRV-OH) | – | – | potency in blocking bacterial growth relative to unglycosylated drosocin (E. coli D22 [1]; E. coli D22, 6 h at 25° C.): 3 to 4 fold
CC[C@H](C)[C@H](NC(=O)[C@@H]1CCCN1C(=O)[C@H](CCCNC(=N)N)NC(=O)[C@@H]1CCCN1C(=O)[C@H](Cc1c[nH]cn1)NC(=O)[C@H](CO)NC(=O)[C@@H](NC(=O)[C@@H]1CCCN1C(=O)[C@H](CCCNC(=N)N)NC(=O)[C@@H]1CCCN1C(=O)[C@H](CO)NC(=O)[C@H](Cc1ccc(O)cc1)NC(=O)[C@@H]1CCCN1C(=O)[C@H](CCCNC(=N)N)NC(=O)[C@@H]1CCCN1C(=O)[C@H](CCCCN)NC(=O)CN)C(C)O[C@H]1O[C@H](CO)[C@H](O)[C@H](O)[C@H]1NC(C)=O)C(=O)N[C@@H](CCCNC(=N)N)C(=O)N[C@H](C(=O)O)C(C)C (stereo partly drawn) [native drosocin (1), H2N-Gly-Lys-Pro-Arg-Pro-Tyr-Ser-Pro-Arg-Pro-Thr(α-D-GalNAc)-Ser-His-Pro-Arg-Pro-Ile-Arg-Val-OH] (H-GKPRPYSPRP[Thr(3ξ)](αGalNAc)SHPRPIRV-OH) | approximately five-fold | 100 ± 20 nM | –
CC[C@H](C)[C@H](NC(=O)[C@@H]1CCCN1C(=O)[C@H](CCCNC(=N)N)NC(=O)[C@@H]1CCCN1C(=O)[C@H](Cc1c[nH]cn1)NC(=O)[C@H](CO)NC(=O)[C@H](CC(C)=NO[C@H]1O[C@H](CO)[C@H](O)[C@H](O)[C@H]1NC(C)=O)NC(=O)[C@@H]1CCCN1C(=O)[C@H](CCCNC(=N)N)NC(=O)[C@@H]1CCCN1C(=O)[C@H](CO)NC(=O)[C@H](Cc1ccc(O)cc1)NC(=O)[C@@H]1CCCN1C(=O)[C@H](CCCNC(=N)N)NC(=O)[C@@H]1CCCN1C(=O)[C@H](CCCCN)NC(=O)CN)C(=O)N[C@@H](CCCNC(=N)N)C(=O)N[C@H](C(=O)O)C(C)C [neoglycopeptide 2] (H-GKPRPYSPRP[X2]SHPRPIRV-OH) | – | 160 ± 40 nM | potency in blocking bacterial growth relative to unglycosylated drosocin (E. coli D22 [2]; E. coli D22, 24 h at rt): four-fold more potent
GKPRPYSPRPTSHPRPIRV [drosocin] | five-fold | – | enhancement of potency in blocking bacterial growth by a single O-linked disaccharide (Gal-GalNAc) at Thr11 (bacterial growth; depending on the target bacterial strain): 2-8 fold
H-GKPRPYSPRPTSHPRPIRV-OH [unglycosylated drosocin] | – | 630 ± 50 nM | IC50 (E. coli D22 [1]; E. coli D22 in LB media with streptomycin, 6 h at 25° C., absorbance at 595 nm, read-out: IC50 in blocking bacterial growth): 400 ± 50 nM
